PMC11672637, “7-O-Carboxylic Acid-Substituted 3-O-Alkyl Difluoroquercetin; An Aztreonam-Potentiating Agent Against Carbapenemase-Producing Pseudomonas aeruginosa Through Simultaneous Inhibition of Metallo-β-Lactamase and Efflux Pump” (Antibiotics, 2024)

Columns and labels:
Experiment in all cases: MIC / checkerboard with ATM
Parameters in all cases: key to Susceptibility category: S: susceptible; I: intermediate; R: resistant
PA-009, blaGES = format: cell-based, P. aeruginosa; conditions: PA-009, Table S2
PA-014, blaGES = format: cell-based, P. aeruginosa; conditions: PA-014, Table S2
PA-035, blaGES = format: cell-based, P. aeruginosa; conditions: PA-035, Table S2; for MIC: Pseudomonas aeruginosa, read-out: MIC value
PA-003, blaVIM = format: cell-based, P. aeruginosa; conditions: PA-003, Table S2; for MIC: Pseudomonas aeruginosa, read-out: MIC value
PA-002, blaIMP = format: cell-based, P. aeruginosa; conditions: PA-002, Table S2; for MIC: Pseudomonas aeruginosa, read-out: MIC value
PA-016, blaIMP = format: cell-based, P. aeruginosa; conditions: PA-016; Table S2
PA-021, blaIMP = format: cell-based, P. aeruginosa; conditions: PA-021, Table S2
PA-027, blaIMP = format: cell-based, P. aeruginosa; conditions: PA-027; Table S2
PA-029, blaIMP = format: cell-based, P. aeruginosa; conditions: PA-029; Table S2
PA-030, blaIMP = format: cell-based, P. aeruginosa; conditions: PA-030; Table S2
PA-032, blaIMP = format: cell-based, P. aeruginosa; conditions: PA-032, Table S2
[1] = system: NDM-1-Producing P. aeruginosa (PA-017, blaNDM); format: cell-based; conditions: PA-017; Table S2
PA-025, blaNDM = format: cell-based, P. aeruginosa; conditions: PA-025; Table S2
PA-026, blaNDM = format: cell-based, P. aeruginosa; conditions: PA-026, Table S2
PA-028, blaNDM = format: cell-based, P. aeruginosa; conditions: PA-028; Table S2
PA-031, blaNDM = format: cell-based, P. aeruginosa; conditions: PA-031; Table S2
PA-033, blaNDM = format: cell-based, P. aeruginosa; conditions: PA-033; Table S2
PA-034, blaNDM = format: cell-based, P. aeruginosa; conditions: PA-034; Table S2
PA-036, blaNDM = format: cell-based, P. aeruginosa; conditions: PA-036; Table S2
PA-038, blaNDM = format: cell-based, P. aeruginosa; conditions: PA-038; Table S2
PA-039, blaNDM = format: cell-based, P. aeruginosa; conditions: PA-039, Table S2
PA-040, blaNDM = format: cell-based, P. aeruginosa; conditions: PA-040; Table S2
PA-041, blaNDM = format: cell-based, P. aeruginosa; conditions: PA-041; Table S2
PA-044, blaNDM = format: cell-based, P. aeruginosa; conditions: PA-044; Table S2
PA-037, blaIMP/NDM = format: cell-based, P. aeruginosa; conditions: PA-037; Table S2
PA-042, blaIMP/NDM = format: cell-based, P. aeruginosa; conditions: PA-042, Table S2; for MIC: Pseudomonas aeruginosa, read-out: MIC value
[2] = Pseudomonas aeruginosa, read-out: MIC value

What does the source list for `NCC[C@H](O)C(=O)N[C@@H]1C[C@H](N)[C@@H](O[C@H]2O[C@H](CN)[C@@H](O)[C@H](O)[C@H]2O)[C@H](O)[C@H]1O[C@H]1O[C@H](CO)[C@@H](O)[C@H](N)[C@H]1O` [AMK, amikacin, reference compound]?
Susceptibility category (PA-009, blaGES): S; MIC (PA-009, blaGES; [2]): 16 µg/mL; Susceptibility category (PA-014, blaGES): S; MIC (PA-014, blaGES; [2]): 8 µg/mL; Susceptibility category (PA-035, blaGES): S; MIC (PA-035, blaGES): ≤ 4 µg/mL; Susceptibility category (PA-003, blaVIM): R; Susceptibility category (PA-002, blaIMP): R; Susceptibility category (PA-016, blaIMP): R; Susceptibility category (PA-021, blaIMP): S; MIC (PA-021, blaIMP; [2]): 16 µg/mL; Susceptibility category (PA-027, blaIMP): R; Susceptibility category (PA-029, blaIMP): R; Susceptibility category (PA-030, blaIMP): R; Susceptibility category (PA-032, blaIMP): S; Susceptibility category [1]: R; Susceptibility category (PA-025, blaNDM): R; Susceptibility category (PA-026, blaNDM): S; Susceptibility category (PA-028, blaNDM): R; Susceptibility category (PA-031, blaNDM): R; Susceptibility category (PA-033, blaNDM): R; Susceptibility category (PA-034, blaNDM): R; Susceptibility category (PA-036, blaNDM): R; Susceptibility category (PA-038, blaNDM): R; Susceptibility category (PA-039, blaNDM): S; MIC (PA-039, blaNDM; [2]): ≤ 4 µg/mL; Susceptibility category (PA-040, blaNDM): R; Susceptibility category (PA-041, blaNDM): R; Susceptibility category (PA-044, blaNDM): R; Susceptibility category (PA-037, blaIMP/NDM): R; Susceptibility category (PA-042, blaIMP/NDM): R

Which Susceptibility category (PA-009, blaGES) does the source give for `CC(C)(O/N=C(\C(=O)N[C@@H]1C(=O)N2C(C(=O)[O-])=C(C[n+]3ccccc3)CS[C@H]12)c1csc(N)n1)C(=O)O` [CAZ, ceftazidime, reference compound] here?
The Susceptibility category was “R”.

What about the Susceptibility category (PA-014, blaGES) of the same compound?
The Susceptibility category was “R”.

What about the Susceptibility category (PA-035, blaGES) of the same compound?
Its Susceptibility category is “R”.

And the MIC (PA-035, blaGES)?
Its MIC is over 16 µg/mL.

What about the Susceptibility category (PA-003, blaVIM) of the same compound?
Its Susceptibility category is “S”.

And the MIC (PA-003, blaVIM)?
The MIC was 4 µg/mL.

And the Susceptibility category (PA-002, blaIMP)?
The Susceptibility category was “R”.

And the MIC (PA-002, blaIMP)?
The MIC was over 16 µg/mL.

What about the Susceptibility category (PA-016, blaIMP) of the same compound?
Its Susceptibility category is “R”.

And the Susceptibility category (PA-021, blaIMP)?
The Susceptibility category was “R”.

What about the Susceptibility category (PA-027, blaIMP) of the same compound?
Its Susceptibility category is “R”.

And the Susceptibility category (PA-029, blaIMP)?
The Susceptibility category was “R”.

And the Susceptibility category (PA-030, blaIMP)?
The Susceptibility category was “R”.

What about the Susceptibility category (PA-032, blaIMP) of the same compound?
The Susceptibility category was “S”.

What about the MIC (PA-032, blaIMP; [2]) of the same compound?
Its MIC is 8 µg/mL.

And the Susceptibility category [1]?
The Susceptibility category was “R”.

And the Susceptibility category (PA-025, blaNDM)?
Its Susceptibility category is “R”.

And the Susceptibility category (PA-026, blaNDM)?
The Susceptibility category was “R”.

And the Susceptibility category (PA-028, blaNDM)?
The Susceptibility category was “R”.

And the Susceptibility category (PA-031, blaNDM)?
The Susceptibility category was “R”.

And the Susceptibility category (PA-033, blaNDM)?
Its Susceptibility category is “R”.

And the Susceptibility category (PA-034, blaNDM)?
The Susceptibility category was “R”.

And the Susceptibility category (PA-036, blaNDM)?
Its Susceptibility category is “R”.

What about the Susceptibility category (PA-038, blaNDM) of the same compound?
Its Susceptibility category is “R”.

And the Susceptibility category (PA-039, blaNDM)?
The Susceptibility category was “R”.

And the Susceptibility category (PA-040, blaNDM)?
Its Susceptibility category is “R”.

What about the Susceptibility category (PA-041, blaNDM) of the same compound?
Its Susceptibility category is “R”.

What about the Susceptibility category (PA-044, blaNDM) of the same compound?
The Susceptibility category was “R”.

And the Susceptibility category (PA-037, blaIMP/NDM)?
The Susceptibility category was “R”.

What about the Susceptibility category (PA-042, blaIMP/NDM) of the same compound?
Its Susceptibility category is “R”.

What about the MIC (PA-042, blaIMP/NDM) of the same compound?
Its MIC is over 16 µg/mL.

For `CO/N=C(\C(=O)N[C@@H]1C(=O)N2C(C(=O)[O-])=C(C[N+]3(C)CCCC3)CS[C@H]12)c1csc(N)n1` [FEP, cefepime, reference compound], which Susceptibility category (PA-009, blaGES) is on record?
Its Susceptibility category is “R”.

And the Susceptibility category (PA-014, blaGES)?
The Susceptibility category was “R”.

And the Susceptibility category (PA-035, blaGES)?
The Susceptibility category was “S”.

And the MIC (PA-035, blaGES)?
Its MIC is 4 µg/mL.

What about the Susceptibility category (PA-003, blaVIM) of the same compound?
Its Susceptibility category is “R”.

What about the MIC (PA-003, blaVIM) of the same compound?
Its MIC is over 16 µg/mL.

And the Susceptibility category (PA-002, blaIMP)?
Its Susceptibility category is “R”.

And the MIC (PA-002, blaIMP)?
The MIC was over 16 µg/mL.

What about the Susceptibility category (PA-016, blaIMP) of the same compound?
Its Susceptibility category is “R”.

And the Susceptibility category (PA-021, blaIMP)?
Its Susceptibility category is “R”.

What about the Susceptibility category (PA-027, blaIMP) of the same compound?
Its Susceptibility category is “R”.

And the Susceptibility category (PA-029, blaIMP)?
The Susceptibility category was “R”.

What about the Susceptibility category (PA-030, blaIMP) of the same compound?
The Susceptibility category was “R”.

And the Susceptibility category (PA-032, blaIMP)?
The Susceptibility category was “R”.

What about the Susceptibility category [1] of the same compound?
The Susceptibility category was “R”.

What about the Susceptibility category (PA-025, blaNDM) of the same compound?
The Susceptibility category was “R”.

And the Susceptibility category (PA-026, blaNDM)?
The Susceptibility category was “S”.

What about the MIC (PA-026, blaNDM; [2]) of the same compound?
Its MIC is 8 µg/mL.

And the Susceptibility category (PA-028, blaNDM)?
The Susceptibility category was “R”.

What about the Susceptibility category (PA-031, blaNDM) of the same compound?
Its Susceptibility category is “R”.

What about the Susceptibility category (PA-033, blaNDM) of the same compound?
Its Susceptibility category is “R”.

And the Susceptibility category (PA-034, blaNDM)?
Its Susceptibility category is “R”.

What about the Susceptibility category (PA-036, blaNDM) of the same compound?
Its Susceptibility category is “R”.

And the Susceptibility category (PA-038, blaNDM)?
Its Susceptibility category is “R”.

What about the Susceptibility category (PA-039, blaNDM) of the same compound?
Its Susceptibility category is “R”.

And the Susceptibility category (PA-040, blaNDM)?
Its Susceptibility category is “R”.

And the Susceptibility category (PA-041, blaNDM)?
The Susceptibility category was “R”.

What about the Susceptibility category (PA-044, blaNDM) of the same compound?
Its Susceptibility category is “R”.

And the Susceptibility category (PA-037, blaIMP/NDM)?
The Susceptibility category was “R”.

What about the Susceptibility category (PA-042, blaIMP/NDM) of the same compound?
The Susceptibility category was “R”.

And the MIC (PA-042, blaIMP/NDM)?
The MIC was over 16 µg/mL.
